pEC50: −log10 of the molar value.
Test system: HCV pseudoparticles (genotype 1a HCV E1 and E2 envelope, H77C isolate)
Experiment: microbe, parasite or virus in culture
Assay type: cell-based
Conditions: Hepatitis C virus, Huh-7, 48 h, HCV pseudoparticle infection of Huh7 cells, luciferase 2 days after infection; average of duplicates

Row | SMILES | pEC50
1 | COC(=O)[C@H](CNC(=O)C(=O)Nc1ccc(OC)nc1)NC(=O)c1ccc(Nc2nc(NC3(c4ccc(Cl)cc4)CC3)nc(OCC(F)(F)F)n2)cc1 [Compound 1242] | 9.49
2 | COC(=O)[C@H](CNC(=O)C(=O)Nc1cc[nH]n1)NC(=O)c1ccc(Nc2nc(NC3(c4ccc(Cl)cc4)CC3)nc(OCC(F)(F)F)n2)cc1 [Compound 1245] | 8.77
3 | COC(=O)[C@H](CNC(=O)C(=O)Nc1ccc(OC)cc1)NC(=O)c1ccc(Nc2nc(NC3(c4ccc(Cl)cc4)CC3)nc(OCC(F)(F)F)n2)cc1 [Compound 1254] | 9.43
4 | COC(=O)[C@H](CNC(=O)C(=O)Nc1ccc(C(F)(F)F)cc1)NC(=O)c1ccc(Nc2nc(NC3(c4ccc(Cl)cc4)CC3)nc(OCC(F)(F)F)n2)cc1 [Compound 1255] | 8.96
5 | COC(=O)[C@H](CNC(=O)C(=O)Nc1ccccc1OC)NC(=O)c1ccc(Nc2nc(NC3(c4ccc(Cl)cc4)CC3)nc(OCC(F)(F)F)n2)cc1 [Compound 1256] | 9.19
6 | Cn1cncc1NC(=O)C(=O)NCC[C@H](NC(=O)c1ccc(Nc2nc(NC3(c4ccc(Cl)cc4)CC3)nc(OCC(F)(F)F)n2)cc1)C(=O)O [Compound 1267] | 8.28
7 | COc1cccc(NC(=O)C(=O)NCC[C@H](NC(=O)c2ccc(Nc3nc(NC4(c5ccc(Cl)cc5)CC4)nc(OCC(F)(F)F)n3)cc2)C(=O)O)c1 [Compound 1270] | 9.89
8 | O=C(NCC[C@H](NC(=O)c1ccc(Nc2nc(NC3(c4ccc(Cl)cc4)CC3)nc(OCC(F)(F)F)n2)cc1)C(=O)O)C(=O)Nc1ccccn1 [Compound 1279] | 8.89

Same assay, conditions: Hepatitis C virus, Huh-7, 48 h, read-out: Activity (EC50 class), HCV pseudoparticle infection of Huh7 cells, luciferase 2 days after infection; EC50 expressed as class A/B

Row | SMILES | pEC50
9 | COC(=O)[C@H](CNC(=O)C(=O)Nc1ccc(OC)nc1)NC(=O)c1ccc(Nc2nc(NC3(c4ccc(Cl)cc4)CC3)nc(OCC(F)(F)F)n2)cc1 [Compound 1242] | 8.00 to 11.00
10 | COC(=O)[C@H](CNC(=O)C(=O)Nn1cnnc1)NC(=O)c1ccc(Nc2nc(NC3(c4ccc(Cl)cc4)CC3)nc(OCC(F)(F)F)n2)cc1 [Compound 1243] | 6.00 to 8.00
11 | COC(=O)[C@H](CNC(=O)C(=O)Nc1ccn(C)n1)NC(=O)c1ccc(Nc2nc(NC3(c4ccc(Cl)cc4)CC3)nc(OCC(F)(F)F)n2)cc1 [Compound 1244] | 8.00 to 11.00
12 | COC(=O)[C@H](CNC(=O)C(=O)Nc1cc[nH]n1)NC(=O)c1ccc(Nc2nc(NC3(c4ccc(Cl)cc4)CC3)nc(OCC(F)(F)F)n2)cc1 [Compound 1245] | 8.00 to 11.00
13 | COC(=O)[C@H](CNC(=O)C(=O)Nc1cn[nH]c1)NC(=O)c1ccc(Nc2nc(NC3(c4ccc(Cl)cc4)CC3)nc(OCC(F)(F)F)n2)cc1 [Compound 1246] | 8.00 to 11.00
14 | COC(=O)[C@H](CNC(=O)C(=O)Nc1cncn1C)NC(=O)c1ccc(Nc2nc(NC3(c4ccc(Cl)cc4)CC3)nc(OCC(F)(F)F)n2)cc1 [Compound 1247] | 8.00 to 11.00
15 | COC(=O)[C@H](CNC(=O)C(=O)Nc1cnn(C)c1)NC(=O)c1ccc(Nc2nc(NC3(c4ccc(Cl)cc4)CC3)nc(OCC(F)(F)F)n2)cc1 [Compound 1248] | 8.00 to 11.00
16 | COC(=O)[C@H](CNC(=O)C(=O)Nc1cccc(F)c1)NC(=O)c1ccc(Nc2nc(NC3(c4ccc(Cl)cc4)CC3)nc(OCC(F)(F)F)n2)cc1 [Compound 1249] | 8.00 to 11.00
17 | COC(=O)[C@H](CNC(=O)C(=O)Nc1cccc(OC)c1)NC(=O)c1ccc(Nc2nc(NC3(c4ccc(Cl)cc4)CC3)nc(OCC(F)(F)F)n2)cc1 [Compound 1250] | 8.00 to 11.00
18 | COC(=O)[C@H](CNC(=O)C(=O)Nc1cccc(C(F)(F)F)c1)NC(=O)c1ccc(Nc2nc(NC3(c4ccc(Cl)cc4)CC3)nc(OCC(F)(F)F)n2)cc1 [Compound 1251] | 8.00 to 11.00
19 | COC(=O)[C@H](CNC(=O)C(=O)Nc1ccc(F)cc1)NC(=O)c1ccc(Nc2nc(NC3(c4ccc(Cl)cc4)CC3)nc(OCC(F)(F)F)n2)cc1 [Compound 1252] | 8.00 to 11.00
20 | COC(=O)[C@H](CNC(=O)C(=O)Nc1ccccc1F)NC(=O)c1ccc(Nc2nc(NC3(c4ccc(Cl)cc4)CC3)nc(OCC(F)(F)F)n2)cc1 [Compound 1253] | 8.00 to 11.00
21 | COC(=O)[C@H](CNC(=O)C(=O)Nc1ccc(OC)cc1)NC(=O)c1ccc(Nc2nc(NC3(c4ccc(Cl)cc4)CC3)nc(OCC(F)(F)F)n2)cc1 [Compound 1254] | 8.00 to 11.00
22 | COC(=O)[C@H](CNC(=O)C(=O)Nc1ccc(C(F)(F)F)cc1)NC(=O)c1ccc(Nc2nc(NC3(c4ccc(Cl)cc4)CC3)nc(OCC(F)(F)F)n2)cc1 [Compound 1255] | 8.00 to 11.00
23 | COC(=O)[C@H](CNC(=O)C(=O)Nc1ccccc1OC)NC(=O)c1ccc(Nc2nc(NC3(c4ccc(Cl)cc4)CC3)nc(OCC(F)(F)F)n2)cc1 [Compound 1256] | 8.00 to 11.00
24 | COC(=O)[C@H](CNC(=O)C(=O)N(C)c1ccccc1)NC(=O)c1ccc(Nc2nc(NC3(c4ccc(Cl)cc4)CC3)nc(OCC(F)(F)F)n2)cc1 [Compound 1257] | 8.00 to 11.00
25 | COC(=O)[C@H](CNC(=O)C(=O)Nc1ccncc1)NC(=O)c1ccc(Nc2nc(NC3(c4ccc(Cl)cc4)CC3)nc(OCC(F)(F)F)n2)cc1 [Compound 1258] | 8.00 to 11.00
26 | COC(=O)[C@H](CNC(=O)C(=O)Nc1cccnc1)NC(=O)c1ccc(Nc2nc(NC3(c4ccc(Cl)cc4)CC3)nc(OCC(F)(F)F)n2)cc1 [Compound 1259] | 8.00 to 11.00
27 | COC(=O)[C@H](CNC(=O)C(=O)Nc1ccnn1C)NC(=O)c1ccc(Nc2nc(NC3(c4ccc(Cl)cc4)CC3)nc(OCC(F)(F)F)n2)cc1 [Compound 1260] | 8.00 to 11.00
28 | COc1ncccc1NC(=O)C(=O)NCC[C@H](NC(=O)c1ccc(Nc2nc(NC3(c4ccc(Cl)cc4)CC3)nc(OCC(F)(F)F)n2)cc1)C(=O)O [Compound 1261] | 8.00 to 11.00
29 | COc1ccc(NC(=O)C(=O)NCC[C@H](NC(=O)c2ccc(Nc3nc(NC4(c5ccc(Cl)cc5)CC4)nc(OCC(F)(F)F)n3)cc2)C(=O)O)cn1 [Compound 1262] | 8.00 to 11.00
30 | Cn1ccc(NC(=O)C(=O)NCC[C@H](NC(=O)c2ccc(Nc3nc(NC4(c5ccc(Cl)cc5)CC4)nc(OCC(F)(F)F)n3)cc2)C(=O)O)n1 [Compound 1263] | 8.00 to 11.00
31 | Cn1ccnc1NC(=O)C(=O)NCC[C@H](NC(=O)c1ccc(Nc2nc(NC3(c4ccc(Cl)cc4)CC3)nc(OCC(F)(F)F)n2)cc1)C(=O)O [Compound 1264] | 6.00 to 8.00
32 | O=C(NCC[C@H](NC(=O)c1ccc(Nc2nc(NC3(c4ccc(Cl)cc4)CC3)nc(OCC(F)(F)F)n2)cc1)C(=O)O)C(=O)Nc1cc[nH]n1 [Compound 1265] | 8.00 to 11.00
33 | O=C(NCC[C@H](NC(=O)c1ccc(Nc2nc(NC3(c4ccc(Cl)cc4)CC3)nc(OCC(F)(F)F)n2)cc1)C(=O)O)C(=O)Nc1cn[nH]c1 [Compound 1266] | 8.00 to 11.00

Row | SMILES | pEC50
34 | Cn1cncc1NC(=O)C(=O)NCC[C@H](NC(=O)c1ccc(Nc2nc(NC3(c4ccc(Cl)cc4)CC3)nc(OCC(F)(F)F)n2)cc1)C(=O)O [Compound 1267] | 8.00 to 11.00
35 | Cn1cc(NC(=O)C(=O)NCC[C@H](NC(=O)c2ccc(Nc3nc(NC4(c5ccc(Cl)cc5)CC4)nc(OCC(F)(F)F)n3)cc2)C(=O)O)cn1 [Compound 1268] | 8.00 to 11.00
36 | O=C(NCC[C@H](NC(=O)c1ccc(Nc2nc(NC3(c4ccc(Cl)cc4)CC3)nc(OCC(F)(F)F)n2)cc1)C(=O)O)C(=O)Nc1cccc(F)c1 [Compound 1269] | 8.00 to 11.00
37 | COc1cccc(NC(=O)C(=O)NCC[C@H](NC(=O)c2ccc(Nc3nc(NC4(c5ccc(Cl)cc5)CC4)nc(OCC(F)(F)F)n3)cc2)C(=O)O)c1 [Compound 1270] | 8.00 to 11.00
38 | O=C(NCC[C@H](NC(=O)c1ccc(Nc2nc(NC3(c4ccc(Cl)cc4)CC3)nc(OCC(F)(F)F)n2)cc1)C(=O)O)C(=O)Nc1cccc(C(F)(F)F)c1 [Compound 1271] | 8.00 to 11.00
39 | O=C(NCC[C@H](NC(=O)c1ccc(Nc2nc(NC3(c4ccc(Cl)cc4)CC3)nc(OCC(F)(F)F)n2)cc1)C(=O)O)C(=O)Nc1ccc(F)cc1 [Compound 1272] | 8.00 to 11.00
40 | O=C(NCC[C@H](NC(=O)c1ccc(Nc2nc(NC3(c4ccc(Cl)cc4)CC3)nc(OCC(F)(F)F)n2)cc1)C(=O)O)C(=O)Nc1ccccc1F [Compound 1273] | 8.00 to 11.00
41 | COc1ccc(NC(=O)C(=O)NCC[C@H](NC(=O)c2ccc(Nc3nc(NC4(c5ccc(Cl)cc5)CC4)nc(OCC(F)(F)F)n3)cc2)C(=O)O)cc1 [Compound 1274] | 8.00 to 11.00
42 | O=C(NCC[C@H](NC(=O)c1ccc(Nc2nc(NC3(c4ccc(Cl)cc4)CC3)nc(OCC(F)(F)F)n2)cc1)C(=O)O)C(=O)Nc1ccc(C(F)(F)F)cc1 [Compound 1275] | 8.00 to 11.00
43 | COc1ccccc1NC(=O)C(=O)NCC[C@H](NC(=O)c1ccc(Nc2nc(NC3(c4ccc(Cl)cc4)CC3)nc(OCC(F)(F)F)n2)cc1)C(=O)O [Compound 1276] | 8.00 to 11.00
44 | CN(C(=O)C(=O)NCC[C@H](NC(=O)c1ccc(Nc2nc(NC3(c4ccc(Cl)cc4)CC3)nc(OCC(F)(F)F)n2)cc1)C(=O)O)c1ccccc1 [Compound 1277] | 8.00 to 11.00
45 | O=C(NCC[C@H](NC(=O)c1ccc(Nc2nc(NC3(c4ccc(Cl)cc4)CC3)nc(OCC(F)(F)F)n2)cc1)C(=O)O)C(=O)Nc1ccncc1 [Compound 1278] | 8.00 to 11.00
46 | O=C(NCC[C@H](NC(=O)c1ccc(Nc2nc(NC3(c4ccc(Cl)cc4)CC3)nc(OCC(F)(F)F)n2)cc1)C(=O)O)C(=O)Nc1ccccn1 [Compound 1279] | 8.00 to 11.00
47 | O=C(NCC[C@H](NC(=O)c1ccc(Nc2nc(NC3(c4ccc(Cl)cc4)CC3)nc(OCC(F)(F)F)n2)cc1)C(=O)O)C(=O)Nc1cccnc1 [Compound 1280] | 8.00 to 11.00
48 | Cn1nccc1NC(=O)C(=O)NCC[C@H](NC(=O)c1ccc(Nc2nc(NC3(c4ccc(Cl)cc4)CC3)nc(OCC(F)(F)F)n2)cc1)C(=O)O [Compound 1281] | 8.00 to 11.00
49 | COC(=O)[C@H](CNC(=O)C(=O)NCCc1ccccn1)NC(=O)c1ccc(Nc2nc(NC3(c4ccc(Cl)cc4)CC3)nc(OCC(F)(F)F)n2)cc1 [Compound 1282] | 8.00 to 11.00
50 | COC(=O)[C@H](CNC(=O)C(=O)NCC(C)c1ccccc1)NC(=O)c1ccc(Nc2nc(NC3(c4ccc(Cl)cc4)CC3)nc(OCC(F)(F)F)n2)cc1 (stereo partly shown) [Compound 1283] | 8.00 to 11.00
51 | COC(=O)[C@H](CNC(=O)C(=O)NCCc1ccccc1)NC(=O)c1ccc(Nc2nc(NC3(c4ccc(Cl)cc4)CC3)nc(OCC(F)(F)F)n2)cc1 [Compound 1284] | 8.00 to 11.00
52 | COC(=O)[C@H](CNC(=O)C(=O)NCCc1ccccc1OC)NC(=O)c1ccc(Nc2nc(NC3(c4ccc(Cl)cc4)CC3)nc(OCC(F)(F)F)n2)cc1 [Compound 1285] | 8.00 to 11.00
53 | COC(=O)[C@H](CNC(=O)C(=O)NCCc1cccc(OC)c1)NC(=O)c1ccc(Nc2nc(NC3(c4ccc(Cl)cc4)CC3)nc(OCC(F)(F)F)n2)cc1 [Compound 1286] | 8.00 to 11.00
54 | COC(=O)[C@H](CNC(=O)C(=O)NCCc1ccc(OC)cc1)NC(=O)c1ccc(Nc2nc(NC3(c4ccc(Cl)cc4)CC3)nc(OCC(F)(F)F)n2)cc1 [Compound 1287] | 8.00 to 11.00
55 | COC(=O)[C@H](CNC(=O)C(=O)NCCc1ccncc1)NC(=O)c1ccc(Nc2nc(NC3(c4ccc(Cl)cc4)CC3)nc(OCC(F)(F)F)n2)cc1 [Compound 1288] | 8.00 to 11.00
56 | COC(=O)[C@H](CNC(=O)C(=O)NCCc1cccc(F)c1)NC(=O)c1ccc(Nc2nc(NC3(c4ccc(Cl)cc4)CC3)nc(OCC(F)(F)F)n2)cc1 [Compound 1289] | 8.00 to 11.00
57 | COC(=O)[C@H](CNC(=O)C(=O)NCCc1ccccc1F)NC(=O)c1ccc(Nc2nc(NC3(c4ccc(Cl)cc4)CC3)nc(OCC(F)(F)F)n2)cc1 [Compound 1290] | 8.00 to 11.00
58 | COC(=O)[C@H](CNC(=O)C(=O)NC1Cc2ccccc2C1)NC(=O)c1ccc(Nc2nc(NC3(c4ccc(Cl)cc4)CC3)nc(OCC(F)(F)F)n2)cc1 [Compound 1291] | 8.00 to 11.00

Reference: patent publication US8916702B2 (priority 2012, dated 2014)
